ChEMBL document CHEMBL1201862, “PubChem BioAssay data set” (2004)
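Each compound was tested at five concentrations against cells in 96-well plates for 48 hours. Abbreviation: GI50, concentration required for 50% inhibition of growth.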 Activity calls are given as the source filed them. No stated cut-off is given here; in the data, active = GI50 up to about 1.1 µM and inactive = higher.

Key:
Assay in all cases: NCI anticancer screen, dose series, 48 h
Malme-3M = system: Malme-3M
786-0 = system: 786-0
HOP-92 = system: HOP-92
NCI-H522 = system: NCI-H522
SF-295 = system: SF-295
OVCAR-3 = system: OVCAR-3
NCI/ADR-RES = system: NCI/ADR-RES
M14 = system: M14
SR = system: SR
RXF 393 = system: RXF 393
SNB-19 = system: SNB-19
HL-60 = system: HL-60
SNB-75 = system: SNB-75
LOX IMVI = system: LOX IMVI
OVCAR-4 = system: OVCAR-4
KM12 = system: KM12
SF-539 = system: SF-539
UACC-257 = system: UACC-257
A549 = system: A549
DMS-273 = system: DMS-273

Measured: GI50

S=C1SCN(C2CCCCCCCCCCC2)CN1C1CCCCCCCCCCC1
inactive: Malme-3M > 100 µM | 786-0 > 100 µM | HOP-92 > 100 µM | NCI-H522 67.5 µM | SF-295 > 100 µM | OVCAR-3 34.7 µM | NCI/ADR-RES > 100 µM | M14 > 100 µM | SR 71.6 µM | RXF 393 > 100 µM | SNB-19 > 100 µM | HL-60 38.2 µM | SNB-75 > 100 µM | LOX IMVI > 100 µM | OVCAR-4 86.7 µM | KM12 > 100 µM | SF-539 > 100 µM | UACC-257 > 100 µM | A549 > 100 µM

O=C1N[C@@H]2c3c(Br)sc(Br)c3C(=O)[C@@H]2N1
inactive: Malme-3M 4.52 µM | 786-0 2.41 µM | HOP-92 5.56 µM | NCI-H522 5.04 µM | SF-295 15.5 µM | OVCAR-3 2.59 µM | NCI/ADR-RES 15.4 µM | M14 3.82 µM | SR 1.74 µM | RXF 393 4.94 µM | SNB-19 11.3 µM | HL-60 2.14 µM | SNB-75 7.73 µM | LOX IMVI 1.93 µM | OVCAR-4 3.94 µM | KM12 5.28 µM | SF-539 2.52 µM | UACC-257 3.3 µM | A549 12.6 µM

COC(=O)CCC(C)[C@H]1CCC2C3C(C[C@H](OC(C)=O)[C@@]21C)[C@@]1(C)CCC2(C[C@H]1C[C@H]3OC(C)=O)OOC1(CCC(C(C)(C)C)CC1)OO2 (stereo not given in full)
inactive: Malme-3M 64.3 µM | 786-0 13.5 µM | HOP-92 6.59 µM | NCI-H522 21 µM | SF-295 7.53 µM | OVCAR-3 6.85 µM | NCI/ADR-RES > 100 µM | M14 > 100 µM | SR 4.45 µM | RXF 393 > 100 µM | SNB-19 > 100 µM | HL-60 9.4 µM | SNB-75 37.9 µM | LOX IMVI 5.25 µM | OVCAR-4 15.6 µM | KM12 14.1 µM | SF-539 68.7 µM | UACC-257 31.8 µM | A549 7.24 µM

CCc1cccc(C(C)CC)c1NC(=O)CC1C(=O)Nc2ccccc2S1(=O)=O (stereo not given)
inactive: Malme-3M 36.5 µM | 786-0 15.4 µM | DMS-273 13.6 µM | SF-295 25.1 µM | OVCAR-3 13.6 µM | M14 41.4 µM | SNB-19 13.4 µM | SNB-75 14.8 µM | LOX IMVI 6.49 µM | OVCAR-4 12.8 µM | KM12 11.5 µM | SF-539 21.5 µM | UACC-257 42.3 µM | A549 24.8 µM

O=C(NCCCNCCCNC(=O)c1cc(-c2ccccc2)nc2ccccc12)c1cc(-c2ccccc2)nc2ccccc12
inactive: Malme-3M 2.13 µM | 786-0 1.74 µM | HOP-92 2.02 µM | NCI-H522 2.01 µM | SF-295 1.88 µM | OVCAR-3 1.46 µM | NCI/ADR-RES 2.39 µM | M14 1.79 µM | SR 1.67 µM | RXF 393 1.77 µM | SNB-19 1.72 µM | HL-60 1.4 µM | SNB-75 1.49 µM | LOX IMVI 1.8 µM | OVCAR-4 1.74 µM | KM12 1.99 µM | SF-539 2.47 µM | UACC-257 1.97 µM | A549 1.83 µM

COCOC1/C=C/CCCCC2=C(C)C=C(C1)O2 (stereo not given)
inactive: Malme-3M > 100 µM | 786-0 > 100 µM | HOP-92 > 100 µM | NCI-H522 > 100 µM | SF-295 > 100 µM | OVCAR-3 > 100 µM | NCI/ADR-RES > 100 µM | M14 > 100 µM | SR > 100 µM | RXF 393 > 100 µM | SNB-19 > 100 µM | HL-60 45.4 µM | SNB-75 > 100 µM | LOX IMVI > 100 µM | OVCAR-4 > 100 µM | KM12 > 100 µM | SF-539 > 100 µM | UACC-257 > 100 µM | A549 > 100 µM

Cc1ccc(S(=O)(=O)N2CCNCCN(S(=O)(=O)c3ccc(C)cc3)CCN(S(=O)(=O)c3ccc(C)cc3)CC2)cc1
inactive: Malme-3M > 100 µM | 786-0 > 100 µM | HOP-92 70.8 µM | NCI-H522 > 100 µM | SF-295 > 100 µM | OVCAR-3 > 100 µM | NCI/ADR-RES > 100 µM | M14 > 100 µM | SR > 100 µM | RXF 393 > 100 µM | SNB-19 > 100 µM | HL-60 > 100 µM | SNB-75 54.3 µM | LOX IMVI > 100 µM | OVCAR-4 > 100 µM | KM12 > 100 µM | SF-539 > 100 µM | UACC-257 > 100 µM | A549 > 100 µM

O=C(C1OC1c1ccc(O)cc1)C12CC3CC(CC(C3)C1)C2 (stereo not given)
inactive: Malme-3M 45.1 µM | 786-0 31.6 µM | HOP-92 32.3 µM | NCI-H522 7.29 µM | SF-295 > 88.9 µM | OVCAR-3 45.1 µM | NCI/ADR-RES 52.1 µM | M14 > 64.3 µM | SR 30.1 µM | RXF 393 > 78.3 µM | SNB-19 > 100 µM | HL-60 10.9 µM | SNB-75 > 100 µM | LOX IMVI > 40.2 µM | OVCAR-4 51.3 µM | KM12 98.9 µM | SF-539 45 µM | UACC-257 57 µM | A549 95.3 µM

O=c1[nH]c(=O)n(C2CC(O)C(CS)O2)cc1F (stereo not given)
inactive: Malme-3M 64.7 µM | 786-0 21.7 µM | HOP-92 9.79 µM | NCI-H522 > 87.1 µM | SF-295 47 µM | OVCAR-3 > 92.3 µM | NCI/ADR-RES 5.4 µM | M14 > 100 µM | SR 56.6 µM | RXF 393 > 100 µM | SNB-19 98.4 µM | HL-60 > 63.8 µM | SNB-75 55.6 µM | LOX IMVI 61.9 µM | OVCAR-4 > 92.7 µM | KM12 99.1 µM | SF-539 11 µM | UACC-257 > 100 µM | A549 23.6 µM

C=CCNC(=S)OCCCCCCCCCC
inactive: Malme-3M 19.6 µM | 786-0 18.2 µM | DMS-273 19.9 µM | SF-295 19.1 µM | M14 18.1 µM | SR 20.9 µM | RXF 393 15.5 µM | SNB-19 30.8 µM | HL-60 16.4 µM | SNB-75 23.6 µM | LOX IMVI 13.6 µM | OVCAR-4 16.5 µM | KM12 12.4 µM | SF-539 19 µM | UACC-257 18.8 µM | A549 25.3 µM

CC1OC(n2ccc(=O)[nH]c2=O)C=C(OC(=O)c2ccccc2)C1=O (stereo not given)
inactive: Malme-3M 74.6 µM | 786-0 > 100 µM | DMS-273 > 100 µM | HOP-92 30.2 µM | SF-295 51.1 µM | OVCAR-3 26.9 µM | M14 88.9 µM | RXF 393 95.5 µM | SNB-19 > 100 µM | HL-60 > 100 µM | SNB-75 27 µM | LOX IMVI 35.7 µM | OVCAR-4 18.9 µM | SF-539 > 100 µM | UACC-257 86.9 µM | A549 39.3 µM

Cc1cc2ccccc2n1CC(=O)NCC(C)C
inactive: Malme-3M > 100 µM | 786-0 > 100 µM | HOP-92 > 100 µM | NCI-H522 > 100 µM | SF-295 > 100 µM | OVCAR-3 > 100 µM | NCI/ADR-RES > 100 µM | M14 > 100 µM | SR > 100 µM | RXF 393 > 100 µM | SNB-19 > 100 µM | HL-60 > 100 µM | SNB-75 > 100 µM | LOX IMVI > 100 µM | OVCAR-4 > 100 µM | KM12 > 100 µM | SF-539 > 100 µM | UACC-257 > 100 µM | A549 > 100 µM

CCOC(=O)C1(C(=O)OCC)C[C@H]2CON=C2[C@@H]1c1ccc(C(F)(F)F)cc1
inactive: Malme-3M > 100 µM | 786-0 46.9 µM | HOP-92 50.4 µM | NCI-H522 24.7 µM | SF-295 41.5 µM | OVCAR-3 40.1 µM | NCI/ADR-RES 32.6 µM | M14 55.1 µM | SR 35.4 µM | RXF 393 43.6 µM | SNB-19 > 100 µM | HL-60 27.7 µM | SNB-75 62.5 µM | LOX IMVI 16.6 µM | OVCAR-4 17.7 µM | KM12 82.6 µM | SF-539 > 100 µM | UACC-257 30.8 µM | A549 75 µM

CC(=O)OCC1OC(N=[N+]=[N-])C(OC(C)=O)C(OC(C)=O)C1OC1OC(COC(C)=O)C(OC(C)=O)C(OC(C)=O)C1OC(C)=O (stereo not given)
inactive: Malme-3M > 100 µM | 786-0 > 100 µM | DMS-273 > 100 µM | NCI-H522 > 100 µM | SF-295 > 100 µM | OVCAR-3 > 100 µM | M14 > 100 µM | RXF 393 35.7 µM | SNB-19 64.1 µM | HL-60 > 100 µM | SNB-75 20.5 µM | LOX IMVI > 100 µM | OVCAR-4 > 100 µM | KM12 > 100 µM | SF-539 58.6 µM | UACC-257 > 100 µM | A549 > 100 µM

CN1CCc2c1nc(-c1ccccc1)c1c2N(C)CC1
inactive: Malme-3M 91.4 µM | 786-0 66.8 µM | DMS-273 53.6 µM | HOP-92 29.7 µM | SF-295 30.1 µM | OVCAR-3 21.4 µM | M14 44.8 µM | RXF 393 43.9 µM | SNB-19 90.4 µM | HL-60 31 µM | SNB-75 > 100 µM | LOX IMVI 49 µM | OVCAR-4 57 µM | KM12 48.4 µM | SF-539 60.8 µM | UACC-257 93.5 µM | A549 > 100 µM
